US10195189B2, “2-phenethenyltetrahydro isoquinolines useful as anti-HIV compounds” (priority 2014, dated 2019)

Test system: MT-2 cells
Assay: Cytotoxicity assay (AlamarBlue) in mock infected MT-2 cells
Assay type: cell-based, human
Details: human, 96 h
Procedure: The present assay was used to screen candidate antiviral compounds by quantification of virus spread and production over several rounds of infection in vitro. MT-2, a HIV-1 permissive human T-cell line, was seeded in microtiter plates and was simultaneously treated with serially diluted compound and inoculated with a HIV-1 NL4-3 viral clone engineered to express Renilla luciferase in place of Net Following treatment, the culture was incubated for 96 hours. After the incubation, media was collected and used to estimate relative infectivity on the indicator cell line, TZM-bl. Additionally, viral spread was quantified by measuring luciferase activity via a commercially available luciferase substrate. In parallel, MT-2 cells were seeded and inoculated with mock virus in the presence of serially diluted compound. Compound toxicity was quantified 96 hours after treatment with AlamarBlue.
MT-2 (NIH Aids reagent program 237) cells were grown and maintained in an incubator at 37° C. with 5% CO2 using a basal medium of RPMI-1640 supplemented with 10% FBS. Cells were seeded in 100 μl at 2×10^4 cells/well in white walled 96-well microtiter plates. Candidate compounds were 3-fold serially diluted in the appropriate solvent. Solvent without compound was used as a no drug reference. Cells were inoculated at a multiplicity of 0.027 with an HIV-1 NL4-3 virus stock engineered to express Renilla luciferase in place of Net Diluted virus stock was first added to serially diluted compound. Compound and virus were delivered to cells in an equal volume (100 μl) and treated cultures were returned to the incubator for 96 hours. In parallel, plates for cytotoxicity estimates were prepared in the same way except cells were plated in clear walled 96-well microtiter plates and were mock infected.
At 96 hours post treatment, 20 μl AlamarBlue proliferation reagent was added to 200 μl treated and mock infected cultures and incubated for 3 hours at 37° C. with 5% CO2 then read at 545, 590 nm on fluorescence plate reader (Biotek).
For all assays, data was imported into Accelrys Assay Explorer 3.3. In Assay Explorer, % inhibition (antiviral or cytotoxicity) was calculated using the solvent control as a reference by the following equation: 1−(SignalCompound/SignalReference). The % Inhibition and compound concentration data was fitted using the following 4-parameter logistic model (Assay Explorer model 42):
[formula] where X is compound concentration, Y is % inhibition, D is the maximum % Inhibition (constrained to 100%), C is IC50 value or inflection point, B is the hill slope, and A is the minimum % inhibition (constrained to 0%). The IC50 value is reported as the EC50 or CC50 depending on the assay endpoint. EC50 represents the effective concentration at which virus replication is inhibited by 50 percent. CC50 represents the concentration that results in the death of 50 percent of the host cells. The selectivity or therapeutic index (SI or TI), is the ratio of CC50 over EC50 and represents the relative effectiveness in inhibiting viral replication compared to inducing cell death.

**Q.** Which CC50 does the source give for `COc1cc(C)c(/C=C/C2c3cc(OC)c(OCc4ccccc4)cc3CCN2C(=O)c2cnccn2)cc1OCc1ccccc1` (centres unmarked) [Example H, [6-Benzyloxy-1-[(E)-2-(5-benzyloxy-4-methoxy-2-methyl-phenyl)vinyl]-7-methoxy-3,4-dihydro-1H-isoquinolin-2-yl]-pyrazin-2-yl-methanone] here?
**A.** Its CC50 is 100000 nM.

**Q.** For `COc1cc(C)c(/C=C/C2c3cc(OC)c(OCc4ccccc4)cc3CCN2C(=O)c2cccc(N)n2)cc1OCc1ccccc1` (centres unmarked) [Example F, (6-Amino-2-pyridyl)-[6-benzyloxy-1-[(E)-2-(5-benzyloxy-4-methoxy-2-methyl-phenyl)vinyl]-7-methoxy-3,4-dihydro-1H-isoquinolin-2-yl]methanone], which CC50 is on record?
**A.** Its CC50 is 100000 nM.

**Q.** With `COc1cc(C)c(/C=C/C2c3cc(OC)c(OCc4ccccc4)cc3CCN2C(=O)c2cccnc2N)cc1OCc1ccccc1` (centres unmarked) [Example K, (2-Amino-3-pyridyl)-[6-benzyloxy-1-[(E)-2-(5-benzyloxy-4-methoxy-2-methyl-phenyl)vinyl]-7-methoxy-3,4-dihydro-1H-isoquinoline-2-yl]methanone] as the compound, how does the CC50 read?
**A.** The CC50 was 100000 nM.

Same assay, conditions: mock infected MT-2 cells, 96 hours, AlamarBlue; read-out: CC50

**Q.** How did the CC50 turn out when `COc1ccc(/C=C/C2NCCc3cc(OCc4ccccc4)c(OC)cc32)c(C(F)(F)F)c1` (centres unmarked) [Example Z, 6-benzyloxy-7-methoxy-1-[(E)-2-[4-methoxy-2-(trifluoromethyl)phenyl]vinyl]-1,2,3,4-tetrahydroisoquinoline] was run?
**A.** The CC50 was 100000 nM.

Test system: HIV-1 NL4-3 viral clone expressing Renilla luciferase
Assay: microbe, parasite or virus in culture
Assay type: cell-based
Details: Human immunodeficiency virus 1, NL43, MT2, 96 h
Method in brief: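 MT-2 cells (2×10^4/well) were infected at MOI 0.027 with Renilla-luciferase HIV-1 NL4-3 alongside 3-fold compound dilutions for 96 h. Spread was read by EnduRen luminescence and supernatant infectivity on TZM-bl (48 h, MUG fluorescence). Mock-infected cytotoxicity used AlamarBlue. % inhibition versus solvent was fitted by 4-parameter logistic (0–100% constrained) for EC50/CC50.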

**Q.** Which EC50 does the source give for `COc1ccc(/C=C/C2NCCc3cc(OCc4ccccc4)c(OC)cc32)c(C(F)(F)F)c1` (centres unmarked) [Example Z, 6-benzyloxy-7-methoxy-1-[(E)-2-[4-methoxy-2-(trifluoromethyl)phenyl]vinyl]-1,2,3,4-tetrahydroisoquinoline] here?
**A.** Its EC50 is 350 nM.

**Q.** For `COc1cc(C)c(/C=C/C2c3cc(OC)c(OCc4ccccc4)cc3CCN2C(=O)c2cnccn2)cc1OCc1ccccc1` (centres unmarked) [Example H, [6-Benzyloxy-1-[(E)-2-(5-benzyloxy-4-methoxy-2-methyl-phenyl)vinyl]-7-methoxy-3,4-dihydro-1H-isoquinolin-2-yl]-pyrazin-2-yl-methanone], which EC50 is on record?
**A.** Its EC50 is 4480 nM.

**Q.** `COc1cc(C)c(/C=C/C2c3cc(OC)c(OCc4ccccc4)cc3CCN2C(=O)c2cccc(N)n2)cc1OCc1ccccc1` (centres unmarked) [Example F, (6-Amino-2-pyridyl)-[6-benzyloxy-1-[(E)-2-(5-benzyloxy-4-methoxy-2-methyl-phenyl)vinyl]-7-methoxy-3,4-dihydro-1H-isoquinolin-2-yl]methanone] was tested. Which EC50 did it give?
**A.** Its EC50 is 5050 nM.

**Q.** Which EC50 does the source give for `COc1cc(C)c(/C=C/C2c3cc(OC)c(OCc4ccccc4)cc3CCN2C(=O)c2cccnc2N)cc1OCc1ccccc1` (centres unmarked) [Example K, (2-Amino-3-pyridyl)-[6-benzyloxy-1-[(E)-2-(5-benzyloxy-4-methoxy-2-methyl-phenyl)vinyl]-7-methoxy-3,4-dihydro-1H-isoquinoline-2-yl]methanone] here?
**A.** Its EC50 is 2880 nM.

**Q.** Which EC50 does the source give for `COc1cc2c(cc1OCc1ccccc1)CCNC2/C=C/c1cc(OC)c(OCc2ccccc2)c(OC)c1` (centres unmarked) [AP, 6-Benzyloxy-1-[(E)-2-(4-benzyloxy-3,5-dimethoxy-phenyl)vinyl]-7-methoxy-1,2,3,4-tetrahydroisoquinoline] here?
**A.** Its EC50 is 970 nM.

**Q.** With `COc1cc2c(cc1OCc1ccccc1)CCNC2/C=C/c1scnc1C` (centres unmarked) [DY, 5-[(E)-2-(6-Benzyloxy-7-methoxy-1,2,3,4-tetrahydroisoquinolin-1-yl)vinyl]-4-methyl-thiazole] as the compound, how does the EC50 read?
**A.** Its EC50 is 5510 nM.

**Q.** With `COc1ccc(/C=C/C2NCCc3cc(OCc4ccccc4)c(OC)cc32)c(OC)n1` (centres unmarked) [CA, 6-Benzyloxy-1-[(E)-2-(2,6-dimethoxy-3-pyridyl)vinyl]-7-methoxy-1,2,3,4-tetrahydroisoquinoline] as the compound, how does the EC50 read?
**A.** The EC50 was 640 nM.

**Q.** Which EC50 does the source give for `CCOC(=O)c1ccccc1/C=C/C1NCCc2cc(OCc3ccccc3)c(OC)cc21` (centres unmarked) [ET, Ethyl 2-[(E)-2-(6-benzyloxy-7-methoxy-1,2,3,4-tetrahydroisoquinolin-1-yl)vinyl]benzoate] here?
**A.** Its EC50 is 2480 nM.

**Q.** How did the EC50 turn out when `COc1cc2c(cc1OCc1ccccc1)CCNC2/C=C/c1ccc(-n2ccnc2)cc1` (centres unmarked) [DK, (E)-1-(4-(1H-imidazol-1-yl)styryl)-6-(benzyloxy)-7-methoxy-1,2,3,4-tetrahydroisoquinoline] was run?
**A.** Its EC50 is 107 nM.

**Q.** `COc1cc(C)c(/C=C/C2NCCc3cc(OCc4ccccc4)c(OC)cc32)cc1OCCCC(=O)O` (centres unmarked) [BO, 4-[5-[(E)-2-(B-benzyloxy-7-methoxy-1,2,3,4-tetrahydroisoquinolin-1-yl)vinyl]-2-methoxy-4-methyl-phenoxy]butanoic acid] was tested. Which EC50 did it give?
**A.** The EC50 was 234 nM.

**Q.** Which EC50 does the source give for `COc1cc2c(cc1OCc1ccccc1)CCNC2/C=C/c1ccccc1N1CCOCC1` (centres unmarked) [DH, (E)-4-(2-(2-(6-(benzyloxy)-7-methoxy-1,2,3,4-tetrahydroisoquinolin-1-yl)vinyl)phenyl)morpholine] here?
**A.** The EC50 was 5260 nM.

**Q.** How did the EC50 turn out when `COc1cc2c(cc1OCc1ccccc1)CCNC2/C=C/c1cccc(OCc2ccccc2)c1` (centres unmarked) [BK, 6-Benzyloxy-1-[(E)-2-(3-benzyloxyphenyl)vinyl]-7-methoxy-1,2,3,4-tetrahydroisoquinoline] was run?
**A.** Its EC50 is 260 nM.

**Q.** `COc1cc(C)c(/C=C/C2NCCc3cc(OCc4ccccc4)c(OC)cc32)c(C)c1` (centres unmarked) [BA, 6-Benzyloxy-7-methoxy-1-[(E)-2-(4-methoxy-2,6-dimethyl-phenyl)vinyl]-1,2,3,4-tetrahydroisoquinoline] was tested. Which EC50 did it give?
**A.** Its EC50 is 497 nM.

**Q.** `COc1cc2c(cc1OCc1ccccc1)CCNC2/C=C/c1c[nH]c2ccccc12` (centres unmarked) [CJ, 6-Benzyloxy-1-[(E)-2-(1H-indol-3-yl)vinyl]-7-methoxy-1,2,3,4-tetrahydroisoquinoline] was tested. Which EC50 did it give?
**A.** Its EC50 is 470 nM.

**Q.** Which EC50 does the source give for `COc1cc2c(cc1OCc1ccccc1)CCNC2/C=C/c1ccc2c(c1)OCC2` (centres unmarked) [EG, 6-Benzyloxy-1-[(E)-2-(2,3-dihydrobenzofuran-6-yl)vinyl]-7-methoxy-1,2,3,4-tetrahydroisoquinoline] here?
**A.** Its EC50 is 900 nM.

**Q.** How did the EC50 turn out when `CCOC(=O)c1coc(-c2cccc(/C=C/C3NCCc4cc(OCc5ccccc5)c(OC)cc43)c2)n1` (centres unmarked) [EF, Ethyl 2-[3-[(E)-2-(6-benzyloxy-7-methoxy-1,2,3,4-tetrahydroisoquinolin-1-yl)vinyl]phenyl]oxazole-4-carboxylate] was run?
**A.** The EC50 was 1000 nM.

**Q.** `COc1cc(F)c(/C=C/C2NCCc3cc(OCc4ccccc4)c(OC)cc32)cc1OC` (centres unmarked) [BP, 6-Benzyloxy-1-[(E)-2-(2-fluoro-4,5-dimethoxy-phenyl)vinyl]-7-methoxy-1,2,3,4-tetrahydroisoquinoline] was tested. Which EC50 did it give?
**A.** The EC50 was 2030 nM.

**Q.** How did the EC50 turn out when `COc1cc2c(cc1OCc1ccccc1)CCNC2/C=C/c1cn(C(=O)OC(C)(C)C)c2ccccc12` (centres unmarked) [CI, tert-Butyl 3-[(E)-2-(6-benzyloxy-7-methoxy-1,2,3,4-tetrahydroisoquinolin-1-yl)vinyl]indole-1-carboxylate] was run?
**A.** The EC50 was 230 nM.

**Q.** With `COc1cc2c(cc1OCc1ccccc1)CCNC2/C=C/c1ccccc1C(F)(F)F` (centres unmarked) [DA, (E)-6-(benzyloxy)-7-methoxy-1-(2-(trifluoromethyl)styryl)-1,2,3,4-tetrahydroisoquinoline] as the compound, how does the EC50 read?
**A.** Its EC50 is 2340 nM.

**Q.** How did the EC50 turn out when `COc1cc(OC)c(OC)cc1/C=C/C1NCCc2cc(OCc3ccccc3)c(OC)cc21` (centres unmarked) [AQ, 6-Benzyloxy-7-methoxy-1-[(E)-2-(2,4,5-trimethoxyphenyl)vinyl]-1,2,3,4-tetrahydroisoquinoline] was run?
**A.** The EC50 was 15.1 nM.

**Q.** `COc1cc(C)c(/C=C/C2c3cc(OC)c(OCc4ccccc4)cc3CCN2C(=O)c2ccncc2)cc1OCc1ccccc1` (centres unmarked) [Example U, [6-benzyloxy-1-[(E)-2-(5-benzyloxy-4-methoxy-2-methyl-phenyl)vinyl]-7-methoxy-3,4-dihydro-1H-isoquinolin-2-yl]-(4-pyridyl)methanone] was tested. Which EC50 did it give?
**A.** The EC50 was 870 nM.

**Q.** Which EC50 does the source give for `COc1ccc(/C=C/C2NCCc3cc(OCc4ccccc4)c(OC)cc32)cc1Cn1ccnc1C` (centres unmarked) [EN, 6-Benzyloxy-7-methoxy-1-[(E)-2-[4-methoxy-3-[(2-methylimidazol-1-yl)methyl]phenyl]vinyl]-1,2,3,4-tetrahydroisoquinolin] here?
**A.** The EC50 was 189 nM.

**Q.** For `COc1cc2c(cc1OCc1ccccc1)CCNC2/C=C/c1ccc(N2CCN(C)CC2)cc1` (centres unmarked) [DW, 6-(Benzyloxy)-7-methoxy-1-[(E)-2-[4-(4-methylpiperazin-1-yl)phenyl]ethenyl]-1,2,3,4-tetrahydroisoquinoline], which EC50 is on record?
**A.** The EC50 was 1240 nM.

**Q.** `COc1ccc2cc(/C=C/C3NCCc4cc(OCc5ccccc5)c(OC)cc43)ccc2c1` (centres unmarked) [DI, (E)-6-(benzyloxy)-7-methoxy-1-(2-(6-methoxynaphthalen-2-yl)vinyl)-1,2,3,4-tetrahydroisoquinoline] was tested. Which EC50 did it give?
**A.** Its EC50 is 628 nM.

**Q.** With `COc1cc2c(cc1OCc1ccccc1)CCNC2/C=C/c1ccc2c(c1)CCO2` (centres unmarked) [BM, 6-Benzyloxy-1-[(E)-2-(2,3-dihydrobenzofuran-5-yl)vinyl]-7-methoxy-1,2,3,4-tetrahydroisoquinoline] as the compound, how does the EC50 read?
**A.** The EC50 was 146 nM.

**Q.** Which EC50 does the source give for `COc1cc2c(cc1OCc1ccccc1)CCNC2/C=C/c1cscn1` (centres unmarked) [DR, 6-(Benzyloxy)-7-methoxy-1-[(E)-2-(1,3-thiazol-4-yl)ethenyl]-1,2,3,4-tetrahydroisoquinolin] here?
**A.** The EC50 was 4820 nM.

**Q.** Which EC50 does the source give for `COc1cc(C)c(/C=C/C2=NCCc3cc(OCc4ccccc4)c(OC)cc32)cc1OCc1ccccc1` [Example AE, 6-benzyloxy-1-[(E)-2-(5-benzyloxy-4-methoxy-2-methyl-phenyl)vinyl]-7-methoxy-3,4-dihydroisoquinoline] here?
**A.** Its EC50 is 440 nM.

**Q.** How did the EC50 turn out when `COc1cc2c(cc1OCc1ccccc1)CCNC2/C=C/c1ccccc1C(=O)O` (centres unmarked) [ES, 2-[(E)-2-(6-benzyloxy-7-methoxy-1,2,3,4-tetrahydroisoquinolin-1-yl)vinyl]benzoic acid] was run?
**A.** The EC50 was 8620 nM.
